Experimental findings from US20090030071A1, “Treatment of Cardiovascular Disease in Mexican Americans Using Nebivolol” (priority 2007, published 2009) are described below.

Entries after “also recorded” stand apart in the source; their conditions may differ.

The subject of test [1] is human umbilical vein endothelial cells (HUVECs). The test is described as follows: Endothelial-dependent NO release from HUVECs of non-Hispanic white and Mexican American donors, measured with electrochemical nanosensors. The test is classed as cell-based. The following applies: for increase in NO release (NO bioavailability): 24 h pretreatment with nebivolol at 1.0 μM (FIG. 4). As to the method: The effects of nebivolol and atenolol on endothelial-dependent NO release were tested in human umbilical vein endothelial cells (HUVECs). Human umbilical vein endothelial cells were isolated into primary cultures from non-Hispanic white and Mexican American female donors by Clonetics (San Diego, Calif.) and purchased as proliferating cells. All cell culture donors were healthy, with no pregnancy or prenatal complications. None of the donors took any drugs regularly and all were nonsmokers and consumed regular caloric/content diet. The identification of race was defined by self-report. The cultured cells were incubated in 95% air/5% CO2 at 37° C. and passage by an enzymatic (trypsin) procedure. […] Before the experiments, the cells (from second or third passage) were rinsed twice with Tyrode-HEPES buffer with 1.8 mmol/L CaCl2. Drugs were obtained from Mylan Laboratories (Morgantown, W. Va.). NO measurement was carried out with electrochemical nanosensors The design was based on previously developed and well-characterized chemically modified carbon-fiber technology ([…], Nature 358, 676-678, 1992; […]. Anal. Chem. 69, 454-462, 1997). Each of the nanosensors was made by depositing a sensing material on the tip of a carbon fiber (length 4-5 μm, diameter 0.2-0.5 μm). The fibers were sealed with nonconductive epoxy and electrically connected to copper wires with conductive silver epoxy. […] The NO nanosensors (diameter 1-2 μm) with a platinum wire (0.1 mm) counter electrode and saturated calomel reference electrode (SCE) were applied. Differential pulse voltammetry (DPV) and amperometry were performed with a computer-based Gamry VFP600 multichannel potentiostat. DPV was used to measure the basal NO concentrations, and amperometry was used to measure changes in NO concentrations from its basal level with time. The DPV current at the peak potential characteristic for NO oxidation (0.65 V) […] was directly proportional to the local concentrations of these compounds in the immediate vicinity of the sensor. Linear calibration curves (current vs. concentration) were constructed for each sensor from 10 nmol/L to 3 μmol/L before and after measurements with aliquots of NO standard solutions, respectively. The detection limit of the sensors was 10^-9 mol/L. The quantification of each analyte (concentration in nmol/L) was performed using a maximum current from amperograms and standard calibration curves. A reproducibility of measurements with nanosensors is relatively high (between 5-12%). […] The sensors were slowly raised 4±1 μm from the surface of a single endothelial cell. The HUVEC preparation is stable over the course of these experiments with the cells remaining viable in culture for >24 hours. Under non-stimulating conditions, basal levels of NO release are very low (<30 nM). […]

The subject of test [2] is human umbilical vein endothelial cells. Nature of the test: CaI-stimulated endothelial NO release in HUVECs from MA and NHW donors after 24 h pre-treatment (nanosensor array). The test is classed as cell-based. As to conditions: for enhancement of NO release: pretreatment 24 hr, 1.0 μM, CaI 1.0 μM stimulus. How it is done:
(§1) Endothelial function in cells from normotensive, age-matched Mexican American (MA) and Non-Hispanic White (NHW) donors, as well as the effects of treatment with nebivolol was also determined. Endothelial NO and peroxynitrite (ONOO^−) release was measured simultaneously in human umbilical vein endothelial cells from age-matched MA and NHW donors using a nanosensor array. The effects of nebivolol on NO and ONOO^− production was evaluated following pre-treatment (24 h) using calcium ionophore (CaI) as a receptor-independent stimulus. Levels of eNOS were measured by Western blot analysis. Drug-membrane interactions were determined by small angle x-ray diffraction analysis.

In test [3] the test system is arteries isolated from control Wistar-Kyoto (WKY) rats. The test is described as follows: NO release from arteries isolated from control Wistar-Kyoto (WKY) rats. Further details: species or system rat. The following applies: for amount of NO released: WKY rat arteries, concentration of 10 μM (maximum NO release). How it is done:
In one aspect of the present invention, a composition comprising nebivolol is administered to a person of Hispanic descent, particularly a Mexican American, wherein nebivolol is administered in a mixture containing a greater proportion (enantiomeric excess) of the l-steroisomer of nebivolol. In another embodiment, all or substantially all of the mixture comprises the l-stereoisomer of nebivolol. NO release levels from arteries isolated from control Wistar-Kyoto (WKY) rats following treatment with nebivolol racemate, l-nebivolol or d-nebivolol vary. […] At this concentration, the amount of NO released was 340±30 nM, 284±24 nM, and 180±21 nM for l-nebivolol, nebivolol racemate and d-nebivolol, respectively. These findings confirm that nebivolol can stimulate NO release in the intact artery in a stereoselective manner. See also, Xhonneux R, Wouters L, Reneman R S, et al. The l-enantiomer of nebivolol potentiates the blood pressure lowering effect of the d-enantiomer. Eur. J. Pharmacol. 1990; 181:261-265.

The subject of test [4] is human umbilical vein endothelial cells. Nature of the test: CaI-stimulated peroxynitrite (ONOO−) release in HUVECs from MA and NHW donors after 24 h pre-treatment (nanosensor array). The test is classed as cell-based. As to conditions: for reduction of ONOO− levels: nebivolol pretreatment. As to the method: as §1
Test [5] concerns eNOS. Nature of the test: eNOS levels by Western blot analysis in endothelium. As to conditions: MA endothelium, nebivolol treatment. The test is classed as cell-based, human. How it is done: as §1
A general note: Immunoblotting shows a protein as a band on a membrane.

In test [6] the test system is aortic endothelial cells. Nature of the test: STZ-induced diabetes: CaI-induced endothelial-dependent NO release from aortic endothelial cells after nebivolol treatment of animals. As to conditions: nebivolol treatment prior to sacrifice at 13 weeks, p=0.1273. The test is classed as in vivo. From the text:
FIG. 6 depicts the effects of STZ-induced diabetes on the ratio of CaI-induced NO/ONOO release from aortic endothelial cells in the absence and presence of nebivolol treatment prior to sacrifice of animals at 13 weeks. Values are reported as mean±SD. *p<0.0001 versus control and ^†p<0.001 versus STZ treatment (Student t-test). FIG. 7 depicts the effects of STZ-induced diabetes on CaI-induced endothelial-dependent NO release from aortic endothelial cells in the absence and presence of nebivolol treatment prior to sacrifice of animals at 13 weeks. Values are reported as mean±SD. *p<0.0001 versus control and ^†p<0.001 versus STZ treatment (Student t-test).

With `CC(C)NCC(O)COc1ccc(CC(N)=O)cc1` (stereo not drawn) [atenolol], in test [1] (either racial group, identical conditions (24 h pre-incubation at 1.0 or 5.0 μM, FIGS. 4 and 5)), the “stimulation of NO release” value is reported as “failed to stimulate any significant amount of NO release; also recorded: did not have any effect”. In test [2] (MA and NHW HUVECs), the “effects on NO release, ONOO− levels, NO/ONOO− ratio and eNOS levels” value is given as “not observed”.

Take `O[C@@H](CNC[C@H](O)[C@H]1CCc2cc(F)ccc2O1)[C@@H]1CCc2cc(F)ccc2O1` [l-nebivolol]: the “amount of NO released” value in test [3] came out at 340 ± 30 nM.

For the compound `O[C@H](CNC[C@@H](O)[C@H]1CCc2cc(F)ccc2O1)[C@@H]1CCc2cc(F)ccc2O1` [d-nebivolol], in test [3] (WKY arterial vessels), the “ability to stimulate NO release (order of activity)” value is listed as “weakest stimulant of NO release”. In addition, in test [3], the “amount of NO released” value was 180 ± 21 nM.

Regarding `OC(CNCC(O)C1CCc2cc(F)ccc2O1)C1CCc2cc(F)ccc2O1` (racemic) [nebivolol, α, α′-[iminobismethylene]bis[6-fluoro-3,4-dihydro-2H-1-benzopyran-2-methanol]], the entries for the “increase in NO release (NO bioavailability)” value in test [1] (HUVECs from Mexican American donors) and in test [1] (HUVECs from white donors) were 138 ± 2 nM and 68 ± 3 nM, respectively. Besides, the “increase in NO bioavailability, Mexican American samples relative to white donors” value in test [1] (nebivolol at 1.0 μM, 24 h pretreatment) was “two-fold greater”. Further, the “enhancement of NO release” value worked out at 57% in test [2] (MA cells) and 20% in test [2] (NHW cells). The “increase of ratio of NO to ONOO− (indicator of eNOS coupling)” value in test [2] (MA, following nebivolol treatment) is reported as “more than 5 fold”. The “ONOO− level after treatment” value in test [4] (MA endothelium, from 746±12 nM without treatment) is 195 ± 10 nM; in test [4] (NHW endothelium, from 416±7 nM without treatment), 191 ± 13 nM. In addition, the “reduction of ONOO− levels” value amounted to 75% in test [4] (MA endothelium) and 50% in test [4] (NHW endothelium). Also, in test [5], the “increase of eNOS levels” value was “two-fold”. The “amount of NO released” value in test [3] worked out at 284 ± 24 nM. The “CaI-induced endothelial-dependent NO release versus non-diabetic control animals” value in test [6] was “not a statistically significant difference as compared to non-diabetic control animals”.
